In US20130095493A1, “IDENTIFICATION OF THE GENE NOTCH3 AS A NOVEL BIOMARKER FOR HUMAN METASTATIC MELANOMA” (THE JOHNS HOPKINS UNIVERSITY, priority 2011, published 2013):
Entries after “also recorded” stand apart in the source; their conditions may differ.

Columns and labels:
Format in all cases: cell-based, human
[1] = tested on: Notch signaling (4XCBF-1 Notch luciferase reporter in GFP-1205Lu co-cultured with RFP-HUVEC); test: Notch luciferase reporter co-culture (dual-luciferase assay)
Experimental: GFP-1205Lu was transfected using Lipofectamine 2000 with 4XCBF-1 Notch luciferase reporter (kindly provided by Dr. Diane Hayward, Johns Hopkins University) and Renilla control plasmid (2 μg total cDNA/well). Cells were transfected for 4 hr, then harvested by trypsinization and co-cultured with RFP-HUVEC at varying ratios for 24 hr in EGM-2. Cells were washed with PBS, snap-frozen, and stored at −80° C. Co-cultures were lysed using the Dual-Luciferase Reporter Assay System (Promega) and analyzed on a 1450 Microbeta plate reader (Perkin Elmer). The specificity of Notch signaling was verified using the pan-Notch inhibitor DAPT and 0.1% DMSO as a vehicle control.
The transcriptional activity of Notch is mediated by the CBF-1 promoter sequence upstream of target genes. CBF-1 recruits CSL transcriptional repressors which inactivate gene expression in the absence of NICD. […] Thus, by utilizing a four-tandem repeat of CBF-1 to drive luciferase expression during a transient transfection, canonical Notch signaling can be directly quantified by chemiluminescence activity in a target cell population. […]
To quantify Notch signaling within the model system, GFP-1205Lu was transiently transfected with 4XCBF-1 Notch luciferase reporter (PJH23A) and co-cultured with RFP-HUVEC for 24 hours. […]

[2] = tested on: GFP-1205Lu or RFP-HUVEC grown alone; test: Growth of cells cultured alone under DAPT; conditions: 10 μM DAPT vs 0.1% DMSO
Source text: (§1) In previous investigations, we observed RFP-HUVEC communicating in a concerted fashion with metastatic melanoma cells to create a networking phenotype during 48 hrs of co-culture. It was thought that understanding the molecular determinants of this communication could lead to pharmacological targets for the prevention of melanoma-endothelial crosstalk in the clinical setting. To determine whether Notch signaling is involved in mediating the networking phenotype, GFP-1205Lu and RFP-HUVEC were co-cultured in 0.1% DMSO (vehicle) or 10 μM DAPT. These cells were also cultured alone in identical media to determine whether these conditions elicited any aberrant growth not attributable to co-culture.

[3] = tested on: RFP-HUVEC networking phenotype in GFP-1205Lu:RFP-HUVEC co-culture; test: Melanoma-endothelial co-culture networking phenotype; conditions: 10 μM DAPT vs 0.1% DMSO; 1:1 GFP-1205Lu:RFP-HUVEC co-culture
Experimental: For co-culture experiments, various GFP-labeled melanoma cell lines were co-cultured with RFP-HUVEC at a 1:1 ratio to 95% confluency in EGM-2. Melanoma cells grown alone were cultured in EGM-2 to control for medium effects. Cells were co-cultured for 48 hours before sorting by FACS into pure populations. The sorted cell populations were divided and stored at −80° C. for mRNA and protein analysis.
as §1

**Q.** Which results are given for `C[C@H](NC(=O)Cc1cc(F)cc(F)c1)C(=O)N[C@H](C(=O)OC(C)(C)C)c1ccccc1` [DAPT]?
**A.** Inhibition of quantified Notch signaling ([1]; 10 μM DAPT vs 0.1% DMSO vehicle): effectively inhibiting all quantified Notch signaling; Effect on co-culture stimulated Notch signaling (luciferase reporter) ([1]; GFP-1205Lu with 4XCBF-1 reporter, RFP-HUVEC co-culture 24 hours, DMSO vehicle had no effect): completely abrogated the co-culture stimulated Notch signaling; also recorded: completely abrogated all Notch signaling observed; Effect on growth of GFP-1205Lu or RFP-HUVEC grown alone [2]: little effect; also recorded: no discernable difference; Effect on RFP-HUVEC networking phenotype in co-culture [3]: drastically affected; also recorded: RFP-HUVEC network disruption
